Assay results reported in patent publication US8049015B2 (Panmira Pharmaceuticals, LLC, priority 2008, dated 2011).

Target: T1, human DP2 receptor (Homo sapiens, UniProt Q9Y5Y4)
T1 construct: expressed in transfected cells
T1 sequence (Q9Y5Y4 1-395): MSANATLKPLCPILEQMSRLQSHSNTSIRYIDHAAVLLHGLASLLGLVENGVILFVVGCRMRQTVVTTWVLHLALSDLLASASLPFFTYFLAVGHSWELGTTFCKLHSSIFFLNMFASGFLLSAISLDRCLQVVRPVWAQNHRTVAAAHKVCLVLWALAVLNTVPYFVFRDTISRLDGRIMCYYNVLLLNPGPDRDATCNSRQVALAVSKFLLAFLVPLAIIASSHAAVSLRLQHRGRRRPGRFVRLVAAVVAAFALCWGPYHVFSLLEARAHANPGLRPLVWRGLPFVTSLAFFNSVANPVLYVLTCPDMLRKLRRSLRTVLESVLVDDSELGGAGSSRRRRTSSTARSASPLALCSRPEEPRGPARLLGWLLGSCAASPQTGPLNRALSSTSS
Assay: DP2/CRTH2 binding assay (radioligand binding with [3H]PGD2)
Conditions: [3H]PGD2 binding, membranes of HEK293 cells expressing recombinant human DP2; read-out: hDP2
Experimental: The ability of a compound to bind to the human DP2 receptor is assessed via a radioligand binding assay using [^3H]PGD2. HEK293 cells stably expressing recombinant human DP2 are resuspended in 10 mM Hepes, 7.4 containing 1 mM DTT, lysed and centrifuged at 75,000×g to pellet the membranes. The membranes are resuspended in 10 mM Hepes, 7.4 containing 1 mM DTT and 10% glycerol to approximately 5 mg protein/ml. Membranes (2-10 μg protein/well) are incubated in 96-well plates with 1 nM [^3H]PGD2 and test compound in Assay Buffer (50 mM Hepes, 10 mM MnCl2, 1 mM EDTA, plus or minus 0.2% human serum albumin, pH 7.4) for 60 minutes at room temperature. The reactions are terminated by rapid filtration through Whatman GF/C glass fibre filter plates. The filter plates were pre-soaked in 0.33% polythylenimine for 30 minutes at room temperature then washed in Wash Buffer (50 mM Hepes, 0.5 M NaCl pH 7.4) prior to harvesting. After harvesting, the filter plates are washed 3 times with 1 ml cold Wash Buffer then dried. Scintillant is then added to the plates and the radioactivity retained on the filters is determined on a Packard TopCount (Perkin Elmer). Specific binding is determined as total radioactive binding minus non-specific binding in the presence of 10 μM PGD2. IC50s were determined using GraphPad prism analysis of drug titration curves.

| SMILES | IC50 [nM] |
| --- | --- |
| CCN(Cc1cc(C(F)(F)F)ccc1-c1cc(CC(=O)O)cnc1Cl)C(=O)C1CC1 [Compound 11, (6-Chloro-5-{2-[(N-cyclopropanecarbonyl-N-ethyl-amino)-methyl]-4-trifluoromethyl-phenyl}-pyridin-3-yl)-acetic acid] | 300 to 1000 |
| CNC(=O)c1ccc(-c2cncc(CC(=O)O)c2)c(CN(Cc2ccccc2)C(=O)C2CC2)c1 [Compound 6, (5-{2-[(N-Benzyl-N-cyclopropanecarbonyl-amino)-methyl]-4-methylcarbamoyl-phenyl}-pyridin-3-yl)-acetic acid] | 300 to 1000 |
| CCN(Cc1cc(C(F)(F)F)ccc1-c1cncc(CC(=O)O)c1)C(=O)CCc1cccnc1 [Compound 36, [5-(2-{[N-Ethyl-N-(3-pyridin-3-yl-propionyl)-amino]-methyl}-4-trifluoromethyl-phenyl)-pyridin-3-yl]-acetic acid] | 300 to 1000 |
| CCOCC(=O)N(CC)Cc1cc(C(F)(F)F)ccc1-c1cncc(CC(=O)O)c1 [Compound 35, [5-(2-{[N-(2-Ethoxy-acetyl)-N-ethyl-amino]-methyl}-4-trifluoromethyl-phenyl)-pyridin-3-yl]-acetic acid] | 300 to 1000 |
| CCN(Cc1cc(C(F)(F)F)ccc1-c1cc(CC(=O)O)cnc1OCC(F)(F)F)C(=O)C1CC1 [Compound 39, [5-{2-[(N-Cyclopropanecarbonyl-N-ethyl-amino)-methyl]-4-trifluoromethyl-phenyl}-6-(2,2,2-trifluoro-ethoxy)-pyridin-3-yl]-acetic acid] | < 300 |
| O=C(O)Cc1cncc(-c2ccc(C(=O)NCc3ccccc3)cc2CN(Cc2ccccc2)C(=O)C2CC2)c1 [Compound 5, (5-{4-Benzylcarbamoyl-2-[(N-benzyl-N-cyclopropanecarbonyl-amino)-methyl]-phenyl}-pyridin-3-yl)-acetic acid] | < 300 |
| CCN(Cc1cc(C(F)(F)F)ccc1-c1cc(CC(=O)O)cnc1OC)C(=O)NCc1ccccc1 [Compound 27, {5-[2-(3-Benzyl-1-ethyl-ureidomethyl)-4-trifluoromethyl-phenyl]-6-methoxy-pyridin-3-yl}-acetic acid] | < 300 |

Results, then the compound that gave them:

| IC50 [nM] | SMILES |
| --- | --- |
| < 300 | N#Cc1ccc(-c2cncc(CC(=O)O)c2)c(CN(Cc2ccccc2)C(=O)C2CC2)c1 [Compound 3, (5-{2-[(N-Benzyl-N-cyclopropanecarbonyl-amino)-methyl]-4-cyano-phenyl}-pyridin-3-yl)-acetic acid] |
| < 300 | CCN(Cc1cc(C(=O)O)ccc1-c1cncc(CC(=O)O)c1)C(=O)OCc1ccccc1 [Compound 1, 3-[(N-Benzyloxycarbonyl-N-ethyl-amino)-methyl]-4-(5-carboxymethyl-pyridin-3-yl)-benzoic acid] |
| < 300 | CCOc1cc(OCC)nc(CC(=O)N(CC)Cc2cc(C(F)(F)F)ccc2-c2cncc(CC(=O)O)c2)n1 [Compound 32, {5-[2-({N-[2-(4,6-Diethoxy-pyrimidin-2-yl)-acetyl]-N-ethyl-amino}-methyl)-4-trifluoromethyl-phenyl]-pyridin-3-yl}-acetic acid] |
| < 300 | CCN(Cc1cc(C(F)(F)F)ccc1-c1cncc(CC(=O)O)c1)C(=O)Cc1ccc(Cl)nc1 [Compound 31, {5-[2-({N-[2-(6-Chloro-pyridin-3-yl)-acetyl]-N-ethyl-amino}-methyl)-4-trifluoromethyl-phenyl]-pyridin-3-yl}-acetic acid] |
| < 300 | CCN(Cc1cc(C(F)(F)F)ccc1-c1cc(CC(=O)O)cnc1OC)C(=O)COC [Compound 42, [5-(2-{[N-Ethyl-N-(2-methoxy-acetyl)-amino]-methyl}-4-trifluoromethyl-phenyl)-6-methoxy-pyridin-3-yl]-acetic acid] |
| < 300 | CC(=O)N(Cc1ccccc1)Cc1cc(C(F)(F)F)ccc1-c1cncc(CC(=O)O)c1 [Compound 18, (5-{2-[(N-Acetyl-N-benzyl-amino)-methyl]-4-trifluoromethyl-phenyl}-pyridin-3-yl)-acetic acid] |
